For orientation: melting point means the temperature of the solid-liquid transition. By inhibition is commonly meant the relative decrease from the control value, in per cent.

The text below walks through data of patent publication US20090163521A1, “Novel Pyrazolopyrimidinone Derivatives” (ORCHID RESEARCH LABORATORIES LIMITED, priority 2005, published 2009).

Data set [1] deals with NCI-H460. The data set is described as follows: DTP human tumor cell line screen, NCI-H460. Particulars: 100 μM; 48 hours; percent growth of control. It is filed as cell-based. The method, then: (§1) The current assay utilizes a 384 well plate format and fluorescent staining technologies resulting in greater screening capacity for testing of synthetic samples.
(§2) The cell lines of the cancer-screening panel are grown in RPMI 1640 medium containing 5% fetal bovine serum and 2 mM L-glutamine. For a typical screening experiment, cells are inoculated into 96 well microtiter plates in 100 μL. After cell inoculation, the micro-titer plates are incubated at 37° C., 5% CO2, 95% air and 100% relative humidity for 24 h prior to addition of experimental drugs. The cells are plated a densities of 5000 cells/well (MCF7), 1000 cells/well (NCI-H460), and 7500 cells/well (SF-268) to allow for varying doubling time of the cell lines. Each plate contains all three-cell lines, a series of dilutions of standard agents, total kill wells and appropriate controls. Plates are incubated under standard conditions for 24 hours prior to addition of experimental compounds or extracts.
(§3) Experimental compounds are solubilized in dimethyl sulfoxide (DMSO) at 400-times the desired maximum test concentration (maximum final DMSO concentration of 0.25%) and stored frozen. Compounds are then diluted with complete media with 0.1% gentamicin sulfate (5 μl of test sample in 100% DMSO is added to 565 μl of complete medium). 20 μl of this solution is then dispensed into test wells containing 50 μl of cell suspension to yield a test concentration of 1.00E-04M.
(§4) After compound addition, plates are incubated at standard conditions for 48 hours, 10 μl/well Alamar Blue is added and the plates are incubated for an additional 4 hours. Fluorescence is measured using an excitation wavelength of 530 nm and an emission wavelength of 590 nm.
(§5) Percent growth is calculated on a plate-by-plate basis for test wells relative to control wells. Percent Growth is expressed as the ratio of fluorescence of the test well to the average fluorescence of the control wells ×100.

In data set [2] the test system is SF-268. The data set is described as follows: DTP human tumor cell line screen, SF-268. It is filed as cell-based. Particulars: 100 μM; 48 hours; percent growth of control. As to the method:
as §1, §2, §3, §4, §5

The test system of data set [3] is TNF-α. The data set is described as follows: In vitro measurement of TNF-α in LPS-stimulated human PBMC. It is filed as cell-based. The conditions noted are these: LPS 1 μg/ml, 18 h. As to the method: This assay determines the effect of test compounds on the production of TNF α in human Peripheral Blood Mononuclear Cells (PBMC). Compounds were tested for their ability to inhibit the activity of TNF α in human PBMC. PBMC were isolated from blood (from healthy volunteers) using BD Vacutainer CPT™ (Cell preparation tube, BD Bio Science) and suspended in RPMI medium (Physiol. Res. 52: 593-598, 2003). The test compounds were pre-incubated with PBMC (0.5 million/incubation well) for 15 minutes at 37° C. and then stimulated with Lipopolysaccharide (Escherichia coli: B4; 1 μg/ml) for 18 h at 37° C. in 5% CO2. The levels of TNFα in cell culture medium were estimated using enzyme linked Immunosorbent assay performed in a 96 well format as per the procedure of the manufacturer (Cayman Chemical, Ann Arbor, USA).

Data set [4] relates to TNF-α. The data set is described as follows: LPS induced sepsis for measurement of TNF-α inhibition in mice. It counts as in vivo. The conditions noted are these: at 50 mg/kg, oral, serum 90 min after LPS. As to the method:
The LPS induced sepsis model in mice was performed as described by Les sekut et al (J Lab Clin Med 1994; 124:813-20). Female Swiss albino mice were selected and the body weights were equivalent within each group. The mice were fasted for 20 hours with free access to water. The mice were dosed orally with the test compound suspended in vehicle containing 0.5% Tween 80 in 0.25% Carboxy-methylcellulose sodium salt. The control mice were administered the vehicle alone. After 30 min of oral dosing, mice were injected with 500 μg of Lipopolysaccharide (Escherichia coli, LPS: B4 from Sigma) in phosphate buffer saline solution into the intraperitoneal cavity of the mice. After 90 min of LPS administration mice were bled via retro-orbital sinus puncture. Blood samples were stored overnight at 4° C. Serum samples were collected by centrifuging the samples at 400 rpm for 15 min at 4° C. Immediately the serum samples were analysed for TNFα levels using commercially available mouse TNF-α ELISA kit (Amersham Biosciences) and assay was performed by the manufacturer instruction.

For the compound `CSc1ccc(-c2nc3[nH]nc(N)c3c(=O)n2-c2ccc(C)c(C)c2)cc1` [Example 2, 3-amino-5-(3,4-dimethylphenyl)-6-[4-(methylthio)phenyl]-1,5-dihydro-4H-pyrazolo[3,4-d]pyrimidin-4-one], the melting point is 263 to 266 °C. Moreover, the “% T/C Lung (NCI-H460)” value in data set [1] was found to be 7%. For the same compound, the “% T/C CNS (SF-268)” value in data set [2] turned out to be 39%. Besides, the inhibition at 10 µM in data set [3] turned out to be 53.4%. For the same compound, in data set [4], the “TNF-α Inhibition (%)” value is given as 34.29 (at 50 mg/kg) %.
